Tests used:
HDAC 1 [1] = biological target: T1, HDAC 1 (Homo sapiens, UniProt Q13547); test: HDAC 1 inhibition assay, fluorophore/quencher peptide substrate, 3-hour preincubation; type: biochemical; details: about 3 hours preincubation of enzyme/compound mix at room temperature; read-out: HDAC 1 inhibitory activity (IC50 [μM]) 3-hour preincubation
Description: (§1) The second assay is similar to the first assay described above, except that preincubation is carried out for about 3 hours after the enzyme is introduced. The test compound was suspended in, and titrated in DMSO. It was then spotted into a 384-well test plate. The enzyme, HDAC 1 or 6, was diluted in the same assay buffer as used in the previous assay and added to the pre-spotted compound. The enzyme/compound mix was incubated at room temperature for about 3 hours. The peptide substrate containing a fluorophore/quencher pair was diluted in the assay buffer and added to the compound/enzyme mix initiating the reaction. The reaction incubated at room temperature for 45 minutes. A concentrated developer solution was diluted in the assay buffer, and added to the reaction. The reaction was incubated at room temperature for about 15 minutes and relative fluorescence was read on an instrument reader.

HDAC 6 [2] = biological target: T2, HDAC 6 (Homo sapiens, UniProt Q9UBN7); test: HDAC 6 inhibition assay, fluorophore/quencher peptide substrate, no preincubation; type: biochemical; details: no preincubation of enzyme and compound; read-out: HDAC 6 inhibitory activity (IC50 [μM]) No preincubation
T2 sequence (Q9UBN7 1-1215): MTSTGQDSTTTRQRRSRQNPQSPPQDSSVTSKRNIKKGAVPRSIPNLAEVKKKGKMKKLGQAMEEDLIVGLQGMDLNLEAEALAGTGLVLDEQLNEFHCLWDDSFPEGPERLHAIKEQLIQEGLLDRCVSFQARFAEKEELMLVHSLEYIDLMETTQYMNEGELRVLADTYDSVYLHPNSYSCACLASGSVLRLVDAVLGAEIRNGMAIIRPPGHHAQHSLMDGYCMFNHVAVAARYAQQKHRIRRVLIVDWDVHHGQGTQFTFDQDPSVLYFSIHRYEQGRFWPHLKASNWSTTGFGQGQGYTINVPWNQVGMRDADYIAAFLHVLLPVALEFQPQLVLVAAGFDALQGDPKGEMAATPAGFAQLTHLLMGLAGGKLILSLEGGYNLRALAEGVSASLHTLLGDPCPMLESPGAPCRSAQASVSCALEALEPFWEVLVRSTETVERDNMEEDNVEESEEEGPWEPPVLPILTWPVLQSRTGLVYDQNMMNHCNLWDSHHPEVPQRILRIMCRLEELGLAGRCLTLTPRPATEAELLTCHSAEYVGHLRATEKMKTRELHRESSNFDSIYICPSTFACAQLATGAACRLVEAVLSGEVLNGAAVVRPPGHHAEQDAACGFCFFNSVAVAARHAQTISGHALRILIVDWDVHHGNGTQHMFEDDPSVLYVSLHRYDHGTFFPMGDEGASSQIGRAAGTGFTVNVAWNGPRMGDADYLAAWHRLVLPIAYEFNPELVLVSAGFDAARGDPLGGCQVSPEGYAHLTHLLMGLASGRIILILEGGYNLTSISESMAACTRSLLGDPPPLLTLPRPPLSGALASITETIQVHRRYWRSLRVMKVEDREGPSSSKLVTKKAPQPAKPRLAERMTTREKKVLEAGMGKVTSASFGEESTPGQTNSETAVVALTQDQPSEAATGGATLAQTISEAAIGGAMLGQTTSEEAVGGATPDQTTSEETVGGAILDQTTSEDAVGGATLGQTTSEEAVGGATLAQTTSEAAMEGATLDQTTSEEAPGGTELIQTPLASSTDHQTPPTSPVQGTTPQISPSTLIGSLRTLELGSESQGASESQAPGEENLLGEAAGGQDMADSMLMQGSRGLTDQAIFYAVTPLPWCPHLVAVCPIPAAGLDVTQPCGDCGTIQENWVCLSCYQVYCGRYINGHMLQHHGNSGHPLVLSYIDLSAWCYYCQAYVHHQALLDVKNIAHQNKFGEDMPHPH
Description: (§2) HDAC inhibitory activity of the compound of Example 1 was measured by two types of assays in which HDAC 1 and 6 were used as a target molecule. The first assay was carried out without preincubation after addition of the enzyme. The test compound was suspended in and titrated in DMSO. It was then spotted into a 384-well test plate. The enzyme, HDAC 1 or 6, was diluted in assay buffer containing 25 mM Tris-HCl (pH 8.0), 137 mM NaCl, 2.7 mM KCl, and 0.01% Tween-20 and added to the pre-spotted compound. The peptide substrate containing a fluorophore/quencher pair was diluted in the same assay buffer and added to the compound/enzyme mix initiating the reaction. The reaction incubated at room temperature for about 45 minutes. A concentrated developer solution was diluted in the assay buffer, and added to the reaction. The reaction was incubated at room temperature for about 15 minutes and relative fluorescence was read on an instrument reader.

HDAC 1 [3] = biological target: T1, HDAC 1; test: HDAC 1 inhibition assay, fluorophore/quencher peptide substrate, no preincubation; type: biochemical; details: no preincubation of enzyme and compound; read-out: HDAC 1 inhibitory activity (IC50 [μM]) No preincubation
Description: as §2

HDAC 6 [4] = biological target: T2, HDAC 6; test: HDAC 6 inhibition assay, fluorophore/quencher peptide substrate, 3-hour preincubation; type: biochemical; details: about 3 hours preincubation of enzyme/compound mix at room temperature; read-out: HDAC 6 inhibitory activity (IC50 [μM]) 3-hour preincubation
Description: as §1

T1 sequence (Q13547 whole entry, species assumed): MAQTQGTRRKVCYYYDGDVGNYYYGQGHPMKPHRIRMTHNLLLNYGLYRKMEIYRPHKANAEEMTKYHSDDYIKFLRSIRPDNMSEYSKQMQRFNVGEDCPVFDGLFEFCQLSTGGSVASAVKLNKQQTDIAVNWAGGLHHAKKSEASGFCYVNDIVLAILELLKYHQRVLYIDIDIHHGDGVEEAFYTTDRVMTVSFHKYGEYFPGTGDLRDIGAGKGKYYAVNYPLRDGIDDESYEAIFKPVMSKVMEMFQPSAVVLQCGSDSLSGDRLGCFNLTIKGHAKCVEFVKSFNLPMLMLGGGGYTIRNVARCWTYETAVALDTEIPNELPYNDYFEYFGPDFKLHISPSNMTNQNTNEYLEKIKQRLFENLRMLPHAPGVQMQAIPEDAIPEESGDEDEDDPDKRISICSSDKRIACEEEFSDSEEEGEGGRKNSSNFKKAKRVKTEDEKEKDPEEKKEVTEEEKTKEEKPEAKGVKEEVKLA

Q: Which IC50 (HDAC 1 [1]) does the source give for CN(C)Cc1c(C(=O)NCCOc2ccc(C(=O)Nc3ccccc3N)cc2)oc2ccccc12 [Example 1, N-(2-aminophenyl)-4-[2-(3-dimethylaminomethylbenzofuran-2-ylcarbonylamino)-ethoxy]-benzamide] here?
A: 0.0033 µM

Q: What about the IC50 (HDAC 6 [2]) of the same compound?
A: > 50 µM

Q: And the IC50 (HDAC 1 [3])?
A: 0.03 µM

Q: What about the IC50 (HDAC 6 [4]) of the same compound?
A: > 50 µM

Q: What about the melting point of the same compound?
A: 205.1 °C

— US20100292320A1, “BENZOFURAN ANILIDE HISTONE DEACETYLASE INHIBITORS” (Gilead Colorado, Inc., priority 2007, published 2010)
